From patent US20160257697A1, “THIOPHENE-SUBSTITUTED TETRACYCLIC COMPOUNDS AND METHODS OFUSE THEREOF FOR THE TREATMENT OF VIRAL DISEASES” (priority 2013, published 2016) come the findings set out here.

Molecules are shown by their SMILES. Like-named read-outs stand apart in the source and are kept apart here.

Common to all, as to experiment: microbe, parasite or virus in culture
What all share (type): cell-based, Hepatitis C virus (HCV)

In assay [1] the test system is HCV replicon 1AQ30D. The settings on record: Replicon Assay B.
Assay [2] relates to HCV replicon 1B. To be noted: Replicon Assay B.
Assay [3] deals with HCV replicon 1AY93H. To be noted: Replicon Assay A. Summed up:
(§1)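 HCV replicon RNA levels were quantified by TaqMan RT-PCR after 3-day compound exposure (0.5% DMSO, 5% FBS). Cyclophilin RNA, co-amplified in the same reaction, served as endogenous control; Ct values were converted to RNA amounts using linear regression standard curves.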
A general note: In antiviral work, replicon cells carry a viral genome segment that copies itself.

In assay [4] the test system is HCV replicon 2B. To be noted: Replicon Assay A. Summed up: as §1
For assay [5], the system named is HCV replicon 1A. To be noted: Replicon Assay A. The procedure, abridged:
as §1

The mark [6] stands for this setting: Hepatitis C virus, read-out: 1A Q30D IC50 (nM), replicon 1AQ30D.
[7] abbreviates: read-out: 1A Y93H IC50, replicon 1AY93H.
Where [8] appears, read: Hepatitis C virus, read-out: 1A Q30D IC50, HCV replicon 1A Q30D.
The mark [9] stands for this setting: Hepatitis C virus, HCV replicon 1B.
Where [10] appears, read: Hepatitis C virus, read-out: 1A Y93H IC50, HCV replicon 1A Y93H.
Setting [11] is: Hepatitis C virus, read-out: 2B IC50, HCV replicon 2B.
Setting [12] is: Hepatitis C virus, HCV replicon 1A.
[13] abbreviates: read-out: 1A Q30D IC50, HCV replicon 1A Q30D.
Where [14] appears, read: read-out: 1A Y93H IC50, HCV replicon 1A Y93H.
The mark [15] stands for this setting: read-out: 2B IC50, HCV replicon 2B.
The mark [16] stands for this setting: read-out: 1A Q30D IC50, replicon 1AQ30D.
Setting [17] is: Hepatitis C virus, read-out: 1A Y93H IC50 (nM), replicon 1AY93H.
Setting [18] is: Hepatitis C virus, read-out: 2B IC50 (nM), replicon 2B.

Usually IC50 stands for the point on the concentration scale where inhibition reaches its midpoint. `CCc1ccc(C2Oc3cc(-c4cnc([C@@H]5CCCN5C(=O)C(NC(=O)OC)C5C[C@@H](C)O[C@@H](C)C5)[nH]4)cc(F)c3-c3cc4cc(-c5cnc([C@@H]6CCCN6C(=O)[C@@H](NC(=O)OC)C(C)C)[nH]5)ccc4n32)s1` (single isomer, unassigned) [Compound 156]: the 50% inhibitory concentration (IC50) in assay [1] (setting [6]) was determined as 0.019 nM; in assay [2] (Hepatitis C virus, replicon 1B), 1.8 pM; in assay [3] (setting [7]) it was 0.005 nM; in assay [4] (read-out: 2B IC50, replicon 2B), 0.005 nM; in assay [5] (replicon 1A) it was 2 pM.

As to `COC(=O)N[C@H](C(=O)N1CCC[C@H]1c1ncc(-c2ccc3c(c2)OC(c2ccc(C4CC4)s2)n2c-3c(F)c3cc(-c4cnc([C@@H]5C[C@H]6C[C@H]6N5C(=O)[C@@H](NC(=O)OC)C5C[C@@H](C)O[C@@H](C)C5)[nH]4)ccc32)[nH]1)C(C)C` (single isomer, unassigned) [Compound 406], the IC50 in assay [1] (setting [8]) was found to be 0.0824 nM; in assay [2] (setting [9]) it was 2.8 pM; in assay [3] (setting [10]), 0.0041 nM; in assay [4] (setting [11]) it was 0.0161 nM; in assay [5] (setting [12]), 2.3 pM.

`COC(=O)NC(C(=O)N1CCC[C@H]1c1ncc(-c2ccc3c(c2)cc2n3C(c3ccc(C4CCCC4)s3)Oc3cc(-c4cnc([C@@H]5CCCN5C(=O)[C@@H](NC(=O)OC)C(C)C)[nH]4)cc(F)c3-2)[nH]1)C1C[C@@H](C)O[C@@H](C)C1` (single isomer, unassigned) [Compound 658]: the IC50 was 0.0643 nM in assay [1] (setting [13]); 8.4 pM in assay [2] (HCV replicon 1B); 0.0089 nM in assay [3] (setting [14]); 0.0098 nM in assay [4] (setting [15]); 3.2 pM in assay [5] (HCV replicon 1A).

Consider `COC(=O)NC(C(=O)N1CCC[C@H]1c1ncc(-c2cc(F)c3c(c2)OC(c2ccc(C4CC4)s2)n2c-3cc3cc(-c4cnc([C@@H]5CCCN5C(=O)[C@@H](NC(=O)OC)C(C)C)[nH]4)ccc32)[nH]1)C1C[C@@H](C)O[C@@H](C)C1` (single isomer, unassigned) [Compound 189], for which the IC50 in assay [1] (setting [16]) was determined as 1.42 nM; in assay [2] (replicon 1B) it was 1.8 pM; in assay [3] (setting [7]) it was 0.26 nM; in assay [4] (read-out: 2B IC50, replicon 2B), 0.48 nM; in assay [5] (replicon 1A), 1.3 pM.

As for `COC(=O)N[C@H](C(=O)N1CCC[C@H]1c1ncc(-c2cc(F)c3c(c2)OC(c2ccc(C4CC4)s2)n2c-3cc3cc(-c4cnc([C@@H]5C[C@@H](F)CN5C(=O)[C@@H](NC(=O)OC)C(C)C)[nH]4)ccc32)[nH]1)C(C)C` (stereo partly shown) [Compound 757], the half-maximal inhibitory concentration (IC50) in assay [1] (setting [8]) is 2.85 nM; in assay [2] (setting [9]), 3 pM; in assay [3] (setting [10]) it was 0.013 nM; in assay [4] (setting [11]) it was 2.4 nM; in assay [5] (setting [12]), 2.7 pM.

For `COC(=O)NC(C(=O)N1[C@@H]2C[C@@H]2C[C@H]1c1ncc(-c2ccc3c(c2)cc2n3C(c3ccc(C4CC4)s3)Oc3cc(-c4cnc([C@@H]5CCCN5C(=O)[C@@H](NC(=O)OC)C(C)C)[nH]4)cc(F)c3-2)[nH]1)C1CCOC(C)(C)C1` (stereo partly shown) [Compound 275], the half-inhibitory concentration (IC50) in assay [1] (setting [6]) came out at 0.023 nM; in assay [2] (Hepatitis C virus, replicon 1B) it was 3.2 pM; in assay [3] (setting [17]) it was 0.003 nM; in assay [4] (setting [18]) it was 0.006 nM; in assay [5] (Hepatitis C virus, replicon 1A) it was 1.9 pM.

In the case of `COC(=O)NC(C(=O)N1CCC[C@H]1c1ncc(-c2cc(F)c3c(c2)OC(c2ccc(C)s2)n2c-3cc3cc(-c4cnc([C@@H]5CCCN5C(=O)[C@@H](NC(=O)OC)C5CCOCC5)[nH]4)ccc32)[nH]1)C(C)(C)F` (single isomer, unassigned) [Compound 105], the concentration for half-maximal inhibition (IC50) in assay [1] (replicon 1AQ30D, read-out: 1A Q30D IC50) amounted to 0.03 nM; in assay [2] (replicon 1B), 2.9 pM; in assay [3] (replicon 1AY93H, read-out: 1A Y93H IC50), 0.01 nM; in assay [4] (replicon 2B, read-out: 2B IC50) it was 0.012 nM; in assay [5] (replicon 1A), 1.5 pM.

For `COC(=O)N[C@H](C(=O)N1CCC[C@H]1c1ncc(-c2cc(F)c3c(c2)OC(c2ccc(C4CC4)s2)n2c-3cc3cc(-c4cnc([C@@H]5CCCN5C(=O)[C@@H](NC(=O)OC)C5CC6(COC6)C5)[nH]4)ccc32)[nH]1)C(C)C` (mixture of isomers) [Compound 531], the 50% inhibitory concentration (IC50) was determined as 3.98 nM in assay [1] (setting [8]); 1300 pM in assay [2] (setting [9]); 0.912 nM in assay [3] (setting [10]); 4.32 nM in assay [4] (setting [11]); 9.09 pM in assay [5] (setting [12]).

As to `COC(=O)NC(C(=O)N1CCC[C@H]1c1ncc(-c2ccc3c(c2)cc2n3C(c3ccc(C4CC4)s3)Oc3cc(-c4cnc([C@@H]5CCCN5C(=O)[C@@H](NC(=O)OC)C(C)C)[nH]4)cc(F)c3-2)[nH]1)C1CCO[C@H](C)C1` (single isomer, unassigned) [Compound 134], the IC50 in assay [1] (setting [16]) was determined as 0.015 nM; in assay [2] (replicon 1B) it was 2.6 pM; in assay [3] (setting [7]), 0.002 nM; in assay [4] (read-out: 2B IC50, replicon 2B) it was 0.003 nM; in assay [5] (replicon 1A), 2.5 pM.

Turning to `COC(=O)NC(C(=O)N1CCC[C@H]1c1ncc(-c2ccc3c(c2)cc2n3C(c3ccc(C4CC4)s3)Oc3cc(-c4cnc([C@@H]5CCCN5C(=O)[C@@H](NC(=O)OC)C(C)C)[nH]4)cc(F)c3-2)[nH]1)C1CN(C(=O)OC)C1` (single isomer, unassigned) [Compound 226], the 50% inhibitory concentration (IC50) amounted to 0.13 nM in assay [1] (setting [6]); 3.6 pM in assay [2] (Hepatitis C virus, replicon 1B); 0.009 nM in assay [3] (setting [7]); 0.025 nM in assay [4] (read-out: 2B IC50, replicon 2B); 2.6 pM in assay [5] (Hepatitis C virus, replicon 1A).

Turning to `CCc1ccc(C2Oc3cc(-c4cnc([C@@H]5CCCN5C(=O)[C@@H](NC(=O)OC)C(C)C)[nH]4)cc(C)c3-c3cc4cc(-c5cnc([C@@H]6CCCN6C(=O)[C@@H](NC(=O)OC)C6CCOCC6)[nH]5)ccc4n32)s1` (single isomer, unassigned) [Compound 560], the 50% inhibitory concentration (IC50) in assay [1] (setting [8]) amounted to 1.56 nM; in assay [2] (setting [9]), 9.93 pM; in assay [3] (setting [10]), 0.13 nM; in assay [4] (setting [11]), 0.0516 nM; in assay [5] (setting [12]), 7.1 pM.

Regarding `COC(=O)NC(C(=O)N1CCC[C@H]1c1ncc(-c2ccc3c(c2)cc2n3C(c3ccc(C4CCCC4)s3)Oc3cc(-c4cnc([C@@H]5CCCN5C(=O)[C@@H](NC(=O)OC)C(C)C)[nH]4)cc(F)c3-2)[nH]1)C1C[C@@H](C)O[C@@H](C)C1` (single isomer, unassigned) [Compound 656], the IC50 in assay [1] (setting [13]) came out at 0.0481 nM; in assay [2] (HCV replicon 1B) it was 2.8 pM; in assay [3] (setting [14]), 0.0025 nM; in assay [4] (setting [15]), 0.0026 nM; in assay [5] (HCV replicon 1A), 1.5 pM.

With `COC(=O)N[C@H](C(=O)N1CCC[C@H]1c1ncc(-c2cc(F)c3c(c2)OC(c2ccc(C(C)C)s2)n2c-3cc3cc(-c4cnc([C@@H]5CCCN5C(=O)[C@@H](NC(=O)OC)C(C)C)[nH]4)ccc32)[nH]1)C(C)C` (single isomer, unassigned) [Compound 35], the IC50 in assay [1] (setting [6]) amounted to 11.5 nM; in assay [2] (Hepatitis C virus, replicon 1B) it was 1.4 pM; in assay [3] (setting [17]) it was 0.62 nM; in assay [4] (setting [18]), 1.43 nM; in assay [5] (Hepatitis C virus, replicon 1A), 1.7 pM.

Take `COC(=O)NC(C(=O)N1[C@@H]2C[C@@H]2C[C@H]1c1ncc(-c2ccc3c(c2)cc2n3C(c3ccc(C4CC4)s3)Oc3cc(-c4cnc([C@@H]5CCCN5C(=O)[C@@H](NC(=O)OC)C(C)C)[nH]4)cc(F)c3-2)[nH]1)C1C[C@@H](C)O[C@@H](C)C1` (single isomer, unassigned) [Compound 272]: the IC50 in assay [1] (setting [16]) stood at 2.39 nM; in assay [2] (replicon 1B), 3.3 pM; in assay [3] (setting [7]), 1 nM; in assay [4] (read-out: 2B IC50, replicon 2B), 2.75 nM; in assay [5] (replicon 1A) it was 2.7 pM.

With `COC(=O)NC(C(=O)N1CCC[C@H]1c1ncc(-c2ccc3c(c2)cc2n3C(c3cc4ccccc4s3)Oc3cc(-c4cnc([C@@H]5CCCN5C(=O)[C@@H](NC(=O)OC)C(C)C)[nH]4)cc(F)c3-2)[nH]1)C1C[C@@H](C)O[C@@H](C)C1` (single isomer, unassigned) [Compound 641], the IC50 was 0.306 nM in assay [1] (setting [13]); 1.1 pM in assay [2] (HCV replicon 1B); 0.0079 nM in assay [3] (setting [14]); 0.0244 nM in assay [4] (setting [15]); 3.3 pM in assay [5] (HCV replicon 1A).

As to `COC(=O)N[C@H](C(=O)N1CCC[C@@H]1c1ncc(-c2cc(F)c3c(c2)OC(c2ccc(C(C)C)s2)n2c-3cc3cc(-c4c[nH]c([C@@H]5CCCN5C(=O)[C@H](NC(=O)OC)C5C[C@@H](C)O[C@@H](C)C5)n4)ccc32)[nH]1)C(C)C` (stereo partly shown) [Compound 240], the IC50 was determined as 0.062 nM in assay [1] (setting [16]); 2.7 pM in assay [2] (replicon 1B); 0.005 nM in assay [3] (setting [7]); 0.011 nM in assay [4] (read-out: 2B IC50, replicon 2B); 2.1 pM in assay [5] (replicon 1A).

`COC(=O)NC(C(=O)N1CCC[C@H]1c1ncc(-c2ccc3c(c2)cc2n3C(c3cc4nccnc4s3)Oc3cc(-c4cnc([C@@H]5CCCN5C(=O)[C@@H](NC(=O)OC)C(C)C)[nH]4)cc(F)c3-2)[nH]1)C1C[C@@H](C)O[C@@H](C)C1` (single isomer, unassigned) [Compound 372]: the IC50 in assay [1] (setting [6]) came to 0.0964 nM; in assay [2] (Hepatitis C virus, replicon 1B) it was 3.2 pM; in assay [3] (setting [7]) it was 0.0051 nM; in assay [4] (read-out: 2B IC50, replicon 2B), 0.0064 nM; in assay [5] (replicon 1A), 2.2 pM.
